Test results reported in patent US9884818B2, “Sulphamoylpyrrolamide derivatives and the use thereof as medicaments for the treatment of hepatitis B” (Janssen Sciences Ireland UC, priority 2013, dated 2018).
pEC50: −log10 of the molar value.

Key:
[1] = Cytotoxicity in HepG2 cells, Resazurin viability assay; conditions: human, HepG2 cells, HepG2 4 days CC50 (μM), incubated for 4 days, Resazurin assay
HBV [2] = assay: Anti-HBV activity, HepG2.2.15 stable transfected cell line, HBV DNA from secreted virions by realtime PCR; format: cell-based; conditions: Hepatitis B virus, HepG2.2.15, 144 h, HepG2.2.15 cells, 6 days of treatment, HBV DNA from secreted virions; read-out: HepG2 2.15 EC50
HBV [3] = assay: Anti-HBV activity, HepG2.117 inducibly HBV producing cell line (Tet-off), intracellular HBV DNA by realtime PCR; format: cell-based; conditions: Hepatitis B virus, HepG2.117, 72 h, HepG2.117 cells, 3 days of treatment, intracellular HBV DNA; read-out: HepG2 117 EC50

Structure (SMILES)	CC50 at 4 days [1]	pEC50 (HBV [2])	pEC50 (HBV [3])
Cc1c(F)ccc(NC(=O)c2cc(S(=O)(=O)N[C@H](C)C(F)(F)F)cn2C)c1F [Compound 116, N-(2,4-Difluoro-3-methylphenyl)-1-methyl-4-{[(1R)-2,2,2-trifluoro-1-methylethyl]sulfamoyl}-1H-pyrrole-2-carboxamide]	> 25 µM	7.52	7.70
Cc1cc(NC(=O)c2cc(S(=O)(=O)NC(C)(C)C(N)=O)cn2C)ccc1F [Compound 64, 4-[(2-amino-1,1-dimethyl-2-oxo-ethyl)sulfamoyl]-N-(4-fluoro-3-methyl-phenyl)-1-methyl-pyrrole-2-carboxamide]	> 25 µM	6.89	7.30
CC[C@@H](C)NS(=O)(=O)c1cc(C(=O)Nc2ccc(F)c(C#N)c2)n(C)c1 [Compound 294, N-(3-cyano-4-fluoro-phenyl)-1-methyl-4-[[(1R)-1-methylpropyl]-sulfamoyl]pyrrole-2-carboxamide]	> 25 µM	7.40	7.00
Cc1c(F)ccc(NC(=O)c2cc(S(=O)(=O)NC(C)(C)C(F)(F)F)cn2C)c1F [Compound 118, N-(2,4-Difluoro-3-methylphenyl)-1-methyl-4-[(2,2,2-trifluoro-1,1-dimethylethyl)sulfamoyl]-1H-pyrrole-2-carboxamide]	> 25 µM	7.30	7.70
Cn1cc(S(=O)(=O)NC(C)(C)C(F)(F)F)cc1C(=O)Nc1cc(Cl)c(F)c(Cl)c1 [Compound 163, N-(3,5-Dichloro-4-fluorophenyl)-1-methyl-4-[(2,2,2-trifluoro-1,1-dimethylethyl)sulfamoyl]-1H-pyrrole-2-carboxamide]	14.3 µM	6.74	6.96
Cn1cc(S(=O)(=O)NC2(C(F)(F)F)CC2)cc1C(=O)Nc1cc(F)c(F)c(Cl)c1 [Compound 72, N-(3-chloro-4,5-difluoro-phenyl)-1-methyl-4-[[1-(trifluoromethyl)-cyclopropyl]sulfamoyl]pyrrole-2-carboxamide]	> 25 µM	8.00	8.00
Cc1c(S(=O)(=O)N[C@H](C)C(F)(F)F)cn(C)c1C(=O)Nc1ccc(F)c(C#N)c1 [Compound 150, N-(3-Cyano-4-fluorophenyl)-1,3-dimethyl-4-{[(1R)-2,2,2-trifluoro-1-methylethyl]sulfamoyl}-1H-pyrrole-2-carboxamide]	> 25 µM	7.05	7.22
Cc1c(F)ccc(NC(=O)c2cc(S(=O)(=O)NC(C)(C)C)cn2C)c1F [Compound 112, 4-(tert-butylsulfamoyl)-N-(2,4-difluoro-3-methyl-phenyl)-1-methyl-pyrrole-2-carboxamide]	> 25 µM	7.22	7.05
Cn1cc(S(=O)(=O)N[C@H]2CCOC2)cc1C(=O)Nc1ccc(F)c(F)c1 [Compound 21, N-(3,4-difluorophenyl)-1-methyl-4-[[(3S)-tetrahydrofuran-3-yl]-sulfamoyl]pyrrole-2-carboxamide]	> 25 µM	6.66	6.08
Cc1c(S(=O)(=O)N[C@H](C)C(F)(F)F)cn(C)c1C(=O)Nc1ccc(F)c(F)c1 [Compound 144, N-(3,4-Difluorophenyl)-1,3-dimethyl-4-{[(1R)-2,2,2-trifluoro-1-methylethyl]sulfamoyl}-1H-pyrrole-2-carboxamide]	> 25 µM	7.30	7.15
Cn1cc(S(=O)(=O)NCC(F)(F)F)cc1C(=O)Nc1ccc(F)c(F)c1 [Compound 132, N-(3,4-Difluorophenyl)-1-methyl-4-[(2,2,2-trifluoroethyl)sulfamoyl]-1H-pyrrole-2-carboxamide]	> 25 µM	7.10	7.15
C[C@@H](NS(=O)(=O)c1cn(C)c(C(=O)Nc2cccc(Br)c2)c1F)C(F)(F)F [Compound 280, N-(3-bromophenyl)-3-fluoro-1-methyl-4-[[(1R)-2,2,2-trifluoro-1-methyl-ethyl]sulfamoyl]pyrrole-2-carboxamide]	> 25 µM	8.30	7.22
Cc1cc(NC(=O)c2cc(S(=O)(=O)N[C@H]3CCOC3)cn2C)cc(F)c1F [Compound 37, N-(3,4-difluoro-5-methyl-phenyl)-1-methyl-4-[[(3S)-tetrahydrofuran-3-yl]-sulfamoyl]pyrrole-2-carboxamide]	> 25 µM	6.14	6.42
Cn1cc(S(=O)(=O)NC2(C)COC2)cc1C(=O)Nc1ccc(F)c(OC(F)(F)F)c1 [Compound 86, N-[4-Fluoro-3-(trifluoromethoxy)phenyl]-1-methyl-4-[(3-methyloxetan-3-yl)sulfamoyl]-1H-pyrrole-2-carboxamide]	> 25 µM	6.43	6.46
C[C@H](NS(=O)(=O)c1cn(C)c(C(=O)Nc2ccc(F)c(C#N)c2)c1F)C(F)(F)F [Compound 188, N-(3-Cyano-4-fluorophenyl)-3-fluoro-1-methyl-4-{[(1S)-2,2,2-trifluoro-1-methylethyl]sulfamoyl}-1H-pyrrole-2-carboxamide]	> 25 µM	7.40	7.52
Cn1cc(S(=O)(=O)NC2(C)COC2)cc1C(=O)Nc1ccc(F)c(Cl)c1 [Compound 78, N-(3-Chloro-4-fluorophenyl)-1-methyl-4-[(3-methyloxetan-3-yl)sulfamoyl]-1H-pyrrole-2-carboxamide]	> 25 µM	7.70	7.52
CC[C@@H](NS(=O)(=O)c1cc(C(=O)Nc2ccc(F)c(Cl)c2F)n(C)c1)C(F)(F)F [Compound 265, N-(3-chloro-2,4-difluoro-phenyl)-1-methyl-4-{[(1R)-1-(trifluoro-methyl)propyl]sulfamoyl}-1H-pyrrole-2-carboxamide]	> 25 µM	8.00	7.52
CC(C)NS(=O)(=O)c1cn(C)c(C(=O)Nc2ccc(F)c(Br)c2)c1F [Compound 230, N-(3-Bromo-4-fluorophenyl)-3-fluoro-1-methyl-4-[(1-methylethyl)sulfamoyl]-1H-pyrrole-2-carboxamide]	> 25 µM	8.10	7.52
C[C@H](NS(=O)(=O)c1cc(C(=O)Nc2ccc(F)c(C#N)c2)n(C)c1)C(C)(F)F [Compound 297, N-(3-cyano-4-fluoro-phenyl)-4-[[(1S)-2,2-difluoro-1-methyl-propyl]sulfamoyl]-1-methyl-pyrrole-2-carboxamide]	22.6 µM	7.40	7.05
Cn1cc(S(=O)(=O)NC2(C)COC2)cc1C(=O)Nc1ccc(F)c(C(F)(F)F)c1 [Compound 43, N-[4-fluoro-3-(trifluoromethyl)phenyl]-1-methyl-4-[(3-methyloxetan-3-yl)-sulfamoyl]pyrrole-2-carboxamide]	> 25 µM	6.96	6.89
[2H]c1cc(F)c(C)c([2H])c1NC(=O)c1cc(S(=O)(=O)NC(C([2H])([2H])[2H])(C([2H])([2H])[2H])C([2H])([2H])[2H])cn1C [Compound 70, N-(2,6-dideuterio-4-fluoro-3-methyl-phenyl)-1-methyl-4-[[2,2,2-trideuterio-1,1-bis(trideuteriomethyl)ethyl]sulfamoyl]pyrrole-2-carboxamide]	> 25 µM	7.70	7.40
C[C@@H](NS(=O)(=O)c1cc(C(=O)Nc2cc(F)c(F)c(Br)c2)n(C)c1)C(F)(F)F [Compound 205, N-(3-Bromo-4,5-difluorophenyl)-1-methyl-4-{[(1R)-2,2,2-trifluoro-1-methylethyl]sulfamoyl}-1H-pyrrole-2-carboxamide]	13 µM	7.10	7.52
Cn1cc(S(=O)(=O)NCC(F)F)cc1C(=O)Nc1ccc(F)c(F)c1 [Compound 129, 4-[(2,2-Difluoroethyl)sulfamoyl]-N-(3,4-difluorophenyl)-1-methyl-1H-pyrrole-2-carboxamide]	> 25 µM	6.77	7.10
Cc1c(S(=O)(=O)NC(C)C)cn(C)c1C(=O)Nc1ccc(F)c(Cl)c1F [Compound 208, N-(3-Chloro-2,4-difluorophenyl)-1,3-dimethyl-4-[(1-methylethyl)sulfamoyl]-1H-pyrrole-2-carboxamide]	> 25 µM	6.70	6.18
Cn1cc(S(=O)(=O)NC2(C)COC2)c(F)c1C(=O)Nc1ccc(F)c(C#N)c1 [Compound 113, N-(3-cyano-4-fluoro-phenyl)-3-fluoro-1-methyl-4-[(3-methyloxetan-3-yl)sulfamoyl]pyrrole-2-carboxamide]	> 25 µM	7.52	7.70
C[C@@H](NS(=O)(=O)c1cc(C(=O)Nc2ccc(F)c(Cl)c2F)n(C)c1)C(F)(F)F [Compound 120, N-(3-Chloro-2,4-difluorophenyl)-1-methyl-4-{[(1R)-2,2,2-trifluoro-1-methylethyl]sulfamoyl}-1H-pyrrole-2-carboxamide]	> 25 µM	7.52	7.52
C[C@@H](NS(=O)(=O)c1cn(C)c(C(=O)Nc2ccc(F)cc2C#N)c1Cl)C(F)(F)F [Compound 273, 3-chloro-N-(2-cyano-4-fluoro-phenyl)-1-methyl-4-[[(1R)-2,2,2-trifluoro-1-methyl-ethyl]sulfamoyl]pyrrole-2-carboxamide]	> 25 µM	6.38	6.15
C[C@@H](NS(=O)(=O)c1cn(C)c(C(=O)Nc2ccc(F)c(C#N)c2)c1F)C(F)(F)F [Compound 170, N-(3-Cyano-4-fluorophenyl)-3-fluoro-1-methyl-4-{[(1R)-2,2,2-trifluoro-1-methylethyl]sulfamoyl}-1H-pyrrole-2-carboxamide]	> 100 µM	> 8.30	8.30
